Question: With CC(C)SN1C=Cn2c(nc(=O)n2[N+](=O)[O-])N1.O.O (hydrate or solvate) as the molecule, how does the melting point read?
Answer: Its melting point is 185 °C.

— patent US20190211024A1 (priority 2016, published 2019)
